This passage reports Bliss excess results from the supplement of paper PMC11061612.

SMILES strings stand for the structures.

Assay in all cases: Bliss excess, mean over the matrix (fraction); higher = more synergy
Assay [1] has as its system DiFi (Colorectal Carcinoma). A digest of the protocol: (§1)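 Bliss excess equals the observed combination effect minus the expected value EA + EB − EA·EB, where EA and EB are the effects of each agent alone. Combination Emax is the second-highest inhibition within the matrix. Inhibition was scaled from CellTiter-Glo 2.0 luminescence, with 0 set by vehicle wells and 1 by blank wells, after 72 hours of two-drug dosing of cells plated in 1536-well plates.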

The next assay has as its system ES8 (Ewing's Sarcoma). A digest of the protocol: as §1
Assay [2] relates to EVSA-T (Breast Carcinoma). The gist of the method:
as §1

For assay [3], the system named is GR-ST (B-Lymphoblastic Leukemia). A digest of the protocol: as §1
Assay [4] deals with HL-60 (Acute Myeloid Leukemia). A digest of the protocol:
as §1

For assay [5], the system named is K-562 (Chronic Myelogenous Leukemia). The gist of the method: as §1
In assay [6] the test system is KCL-22 (Chronic Myelogenous Leukemia). A digest of the protocol:
as §1

The subject of assay [7] is KYSE-180 (Esophageal Squamous Cell Carcinoma). The gist of the method: as §1
For another assay, the system named is LN-18 (Glioblastoma). A digest of the protocol: as §1
Assay [8] has as its system MFM-223 (Breast Carcinoma). A digest of the protocol: as §1
The test system of assay [9] is MKN28 (Gastric Carcinoma). The gist of the method:
as §1

In assay [10] the test system is MOLT-16 (T-Lymphoblastic Leukemia). A digest of the protocol: as §1
Assay [11] concerns NCI-H1792 (Lung Adenocarcinoma). A digest of the protocol: as §1
The test system of assay [12] is NCI-H847 (Small Cell Lung Carcinoma). The gist of the method:
as §1

Assay [13] has as its system P12-ICHIKAWA (T-Lymphoblastic Leukemia). The gist of the method: as §1
Assay [14] relates to PANC-08-13 (Pancreatic Carcinoma). A digest of the protocol: as §1
For assay [15], the system named is SR (Other Blood Carcinomas). A digest of the protocol: as §1
The next assay relates to TC-71 (Ewing's Sarcoma). The gist of the method: as §1
Assay [16] deals with TE-6 (Esophageal Squamous Cell Carcinoma). A digest of the protocol: as §1
The next assay concerns WM-115 (Melanoma). The gist of the method: as §1

On to `CC1(C)CCC(CN2CCN(c3ccc(C(=O)NS(=O)(=O)c4ccc(NCC5CCOCC5)c([N+](=O)[O-])c4)c(Oc4cnc5[nH]ccc5c4)c3)CC2)=C(c2ccc(Cl)cc2)C1` [Venetoclax] + Cn1cnc2c(F)c(Nc3ccc(Br)cc3Cl)c(C(=O)NOCCO)cc21 [Selumetinib] (first compound max 1 µM, 7x7, partner max 3 µM), for which the Bliss excess is -0.0967 in assay [1]; -0.0411 with ES8 (Ewing's Sarcoma); -0.017 in [2]; -0.0318 in [3]; 0.0694 in assay [4]; -0.0074 in [5]. Further, the Bliss excess was -0.0032 in assay [6]; -0.0128 in assay [7]; -0.0088 in the assay with LN-18 (Glioblastoma); -0.006 in assay [8]; -0.0012 in assay [9]; 0.016 in [10]. The Bliss excess is 0 in [11]; -0.0428 in [12]; 0.0233 in [13]; -0.0627 in [14]; 0.0026 in assay [15]; -0.0255 with TC-71 (Ewing's Sarcoma). Besides, the Bliss excess in [16] was 0.0203; with WM-115 (Melanoma), -0.0472.
